Measurements as given in US4248870A, “Maytansinoids and use” (Takeda Chemical Industries, Ltd., priority 1979, dated 1981).
≈ marks a conversion by molar mass, not a printed value.

Tests used:
Tetrahymena pyriformis W = experiment: Antiprotozoal activity, growth inhibition by serial dilution method; assay type: cell-based; details: 28° C., 44 to 48 hours, pH 7.0, serial dilution method
Description: Antiprotozoal activity of compound (I) was assayed with Tetrahymena pyriformis W as the test organism and a medium composed of 20 g tryptose-peptone (Difco Co.), 1 g yeast extract, 2 glucose, 1000 ml distilled water, 10 ml 1 M phosphate buffer (pH 7.0) as the assay medium. The microorganism was incubated at 28° C. for 44 to 48 hours and the growth inhibitory activity of compound (I) was assayed by the serial dilution method.

leukemia P-388 = experiment: Therapeutic test in mice, leukemia P-388 transplanted intraperitoneally (life span prolongation); assay type: in vivo; details: intraperitoneally once daily for 9 consecutive days
Description: (§1) Therapeutic tests were carried out in mice according to NCI-protocols 1,200 and 1,300, Cancer Chemother, Reports, Part 3, 1972, Vol. 3, No. 2, in which leukemia P-388 and melanoma B-16 tumor cells had been intraperitoneally transplanted, compound (I) being administered intraperitoneally once daily for 9 consecutive days.

melanoma B-16 = experiment: Therapeutic test in mice, melanoma B-16 transplanted intraperitoneally (life span prolongation); assay type: in vivo; details: intraperitoneally once daily for 9 consecutive days
Description: as §1

COc1cc2cc(c1Cl)N(C)C(=O)CC(OC(=O)C1CC1)C1(C)OC1C(C)C1CC(O)(NC(=O)O1)C(OC)C=CC=C(C)C2 (centres unmarked) [Maytansinol 3-cyclopropane carboxylate, Maytansinol 3-cyclopropanecarboxylate]
MIC (Tetrahymena pyriformis W): 4 µg/mL (≈ 6.32 µM)

COc1cc2cc(c1Cl)N(C)C(=O)CC(OC(=O)Cc1ccccc1)C1(C)OC1C(C)C1CC(O)(NC(=O)O1)C(OC)C=CC=C(C)C2 (centres unmarked) [Maytansinol 3-phenylacetate]
Antitumor activities P-388 (T/C %) (leukemia P-388; 12.5 μg/kg): 164% | Antitumor activities P-388 (T/C %) (leukemia P-388; 25 μg/kg): 185% | Antitumor activities B-16 (T/C %) (melanoma B-16; 12.5 μg/kg): 207% | Antitumor activities B-16 (T/C %) (melanoma B-16; 25 μg/kg): 230% | MIC (Tetrahymena pyriformis W): < 2 µg/mL

COc1cc2cc(c1Cl)N(C)C(=O)CC(OC(=O)CCc1ccccc1)C1(C)OC1C(C)C1CC(O)(NC(=O)O1)C(OC)C=CC=C(C)C2 (centres unmarked) [Maytansinol 3-(3-phenyl)propionate, Maytansinol 3-phenylpropionate]
MIC (Tetrahymena pyriformis W): 2 to 4 µg/mL (≈ 2.87 to 5.74 µM)

COc1cc2cc(c1Cl)N(C)C(=O)CC(OC(=O)c1ccccn1)C1(C)OC1C(C)C1CC(O)(NC(=O)O1)C(OC)C=CC=C(C)C2 (stereo not drawn) [Maytansinol 3-α-picolinate, Maytansinol 3-picolinate]
Antitumor activities P-388 (T/C %) (leukemia P-388; 50 μg/kg): 193% | Antitumor activities P-388 (T/C %) (leukemia P-388; 100 μg/kg): 185% | Antitumor activities B-16 (T/C %) (melanoma B-16; 100 μg/kg): 176% | Antitumor activities B-16 (T/C %) (melanoma B-16; 200 μg/kg): 173% | MIC (Tetrahymena pyriformis W): ≥ 4 µg/mL

COc1cc2cc(c1Cl)N(C)C(=O)CC(OC(=O)C1CCCCC1)C1(C)OC1C(C)C1CC(O)(NC(=O)O1)C(OC)C=CC=C(C)C2 (centres unmarked) [Maytansinol 3-cyclohexane carboxylate, Maytansinol 3-cyclohexanecarboxylate]
Antitumor activities B-16 (T/C %) (melanoma B-16; 25 μg/kg): 193% | Antitumor activities B-16 (T/C %) (melanoma B-16; 50 μg/kg): 188% | Antitumor activities B-16 (T/C %) (melanoma B-16; 100 μg/kg): 193% | MIC (Tetrahymena pyriformis W): < 2 µg/mL

COc1cc2cc(c1Cl)N(C)C(=O)CC(OC(=O)c1ccccc1)C1(C)OC1C(C)C1CC(O)(NC(=O)O1)C(OC)C=CC=C(C)C2 (centres unmarked) [Maytansinol 3-benzoate]
MIC (Tetrahymena pyriformis W): 4 µg/mL (≈ 5.98 µM)

COc1cc2cc(c1Cl)N(C)C(=O)CC(OC(=O)c1ccco1)C1(C)OC1C(C)C1CC(O)(NC(=O)O1)C(OC)C=CC=C(C)C2 (centres unmarked) [Maytansinol 3-(2-furane)carboxylate, Maytansinol 3-(2-furan)carboxylate]
MIC (Tetrahymena pyriformis W): ≥ 4 µg/mL

COc1cc2cc(c1Cl)N(C)C(=O)CC(OC(=O)c1cccs1)C1(C)OC1C(C)C1CC(O)(NC(=O)O1)C(OC)C=CC=C(C)C2 (centres unmarked) [Maytansinol 3-(2-thiophene)carboxylate]
MIC (Tetrahymena pyriformis W): ≥ 4 µg/mL

COc1cc2cc(c1Cl)N(C)C(=O)CC(OC(=O)c1ccc(Cl)cc1)C1(C)OC1C(C)C1CC(O)(NC(=O)O1)C(OC)C=CC=C(C)C2 (centres unmarked) [Maytansinol 3-(p-chloro)benzoate, Maytansinol 3-p-chlorobenzoate]
MIC (Tetrahymena pyriformis W): ≥ 4 µg/mL
